Results on 17 compounds are retold here after patent US20260053834A1, “COVALENT MODIFIERS OF AKT1 AND USES THEREOF” (Terremoto Biosciences, Inc., priority 2023, published 2026).

Test [1] addresses T1, AKT1 WT (Homo sapiens, UniProt P31749).
T1 construct: expressed in transfected cells; host or cells: HEK293
As to the kind of experiment: Live cell target engagement by NanoBRET competitive probe displacement, AKT1 WT. The test is classed as binding. Particulars: transfected HEK293 cells, 2 h at 37° C., read-out: AKT1 WT IC50: GeoMean IC50. In general terms: BRET reads energy transfer from a luciferase to a nearby fluorophore.

Test [2] addresses T2, AKT1 E17K (Homo sapiens, UniProt P31749, E17K).
T2 construct: expressed in transfected cells; host or cells: HEK293
As to the kind of experiment: Live cell target engagement by NanoBRET competitive probe displacement, AKT1 E17K. The test is classed as binding. Particulars: transfected HEK293 cells, 2 h at 37° C., read-out: AKT1 E17K IC50: GeoMean IC50.

For test [3], the target named is T3, AKT2 (Homo sapiens, UniProt P31751).
T3 construct: expressed in transfected cells; host or cells: HEK293
As to the kind of experiment: Live cell target engagement by NanoBRET competitive probe displacement, AKT2. Type of test: binding. Conditions: transfected HEK293 cells, 2 h at 37° C., read-out: AKT2 IC50: GeoMean IC50.

Test [4] has as its system LAPC4 prostate cancer cells, which express the AKT1 E17K allele. As to the kind of experiment: Antiproliferative effects in LAPC4 cells (CellTiter Glo, 72 h). The test is classed as cell-based. Conditions: Homo sapiens, LAPC4, 72 h, read-out: LAPC4 proliferation IC50: GeoMean IC50. In outline:
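Cells grown in IMDM with 12% FBS, seeded at 1,000 cells/well and treated with compound dilutions in DMSO for 72 h. Intracellular ATP read by luminescence. IC50 from a log(inhibitor) vs. response Hill fit.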
In general terms: In ATP-based viability assays light output follows the ATP content of the culture.

T2 sequence (P31749 whole entry E17K): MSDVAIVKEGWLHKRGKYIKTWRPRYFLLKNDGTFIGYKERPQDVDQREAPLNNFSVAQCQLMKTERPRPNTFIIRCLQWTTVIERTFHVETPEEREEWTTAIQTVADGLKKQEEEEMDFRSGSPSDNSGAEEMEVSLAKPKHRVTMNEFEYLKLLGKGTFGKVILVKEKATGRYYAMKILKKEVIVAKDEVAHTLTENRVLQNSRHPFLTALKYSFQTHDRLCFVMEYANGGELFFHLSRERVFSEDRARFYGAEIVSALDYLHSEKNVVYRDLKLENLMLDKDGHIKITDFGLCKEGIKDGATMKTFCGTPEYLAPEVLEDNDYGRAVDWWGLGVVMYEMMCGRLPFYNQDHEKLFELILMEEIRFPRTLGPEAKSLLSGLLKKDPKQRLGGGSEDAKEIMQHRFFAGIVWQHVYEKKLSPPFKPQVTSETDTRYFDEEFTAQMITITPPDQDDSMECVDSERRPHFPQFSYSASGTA
T3 sequence (P31751 whole entry): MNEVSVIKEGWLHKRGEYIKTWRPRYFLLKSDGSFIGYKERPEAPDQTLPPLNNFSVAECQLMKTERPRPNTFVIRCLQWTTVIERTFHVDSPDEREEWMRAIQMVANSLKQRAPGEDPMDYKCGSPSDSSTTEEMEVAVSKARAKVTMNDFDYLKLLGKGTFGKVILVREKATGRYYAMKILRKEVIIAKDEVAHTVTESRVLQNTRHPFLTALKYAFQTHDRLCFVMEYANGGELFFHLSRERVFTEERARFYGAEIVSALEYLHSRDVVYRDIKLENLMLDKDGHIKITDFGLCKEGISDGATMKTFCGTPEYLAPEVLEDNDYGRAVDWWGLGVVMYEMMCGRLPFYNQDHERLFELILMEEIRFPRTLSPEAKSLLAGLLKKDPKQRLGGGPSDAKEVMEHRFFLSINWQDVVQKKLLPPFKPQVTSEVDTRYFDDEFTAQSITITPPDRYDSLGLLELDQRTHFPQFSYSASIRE
T1 sequence (P31749 whole entry): as the sequence (P31749 whole entry E17K) above, with K17E counted along it

For `Cc1cc(-n2nccn2)nc2c1nc(-c1cccnc1N)n2-c1ccc2c(c1)CC[C@@H]2NC(=O)c1cc(C=O)c(O)c(F)c1F` [Example 227, N-[(1S)-5-[2-(2-aminopyridin-3-yl)-7-methyl-5-(1,2,3-triazol-2-yl)imidazo[4,5-b]pyridin-3-yl]-2,3-dihydro-1H-inden-1-yl]-2,3-difluoro-5-formyl-4-hydroxybenzamide], the IC50 lay in the range of 0.01 to 0.1 µM in test [1], 0.01 to 0.1 µM in test [2], 0.1 to 2 µM in test [3] and 0.01 to 0.1 µM in test [4].
As to `CN(C)c1cc(C(=O)N[C@H]2CCc3cc(-n4c(-c5cccnc5N)nc5ccc(-n6cccn6)nc54)ccc32)cc(C=O)c1O` [Example 228, N-[(1S)-5-[2-(2-aminopyridin-3-yl)-5-(pyrazol-1-yl)imidazo[4,5-b]pyridin-3-yl]-2,3-dihydro-1H-inden-1-yl]-3-(dimethylamino)-5-formyl-4-hydroxybenzamide], the IC50 was 0.1 to 2 µM in test [1], 0.01 to 0.1 µM in test [2], at least 2 µM in test [3] and 0.1 to 2 µM in test [4].
For the compound `Cc1cc2nc(-c3cccnc3N)n(-c3ccc4c(c3)CC[C@@H]4NC(=O)c3ccc(O)c(C=O)c3)c2nc1-n1cccn1` [Example 229, (S)—N-(5-(2-(2-aminopyridin-3-yl)-6-methyl-5-(1H-pyrazol-1-yl)-3H-imidazo[4,5-b]pyridin-3-yl)-2,3-dihydro-1H-inden-1-yl)-3-formyl-4-hydroxybenzamide], the IC50 was in the range of 0.1 to 2 µM in test [1], 0.01 to 0.1 µM in test [2], 0.1 to 2 µM in test [3] and 0.1 to 2 µM in test [4].
Regarding `Nc1ncccc1-c1nc2c(C3CC3)cc(-n3cccn3)nc2n1-c1ccc2c(c1)CC[C@@H]2NC(=O)c1ccc(O)c(C=O)c1` [Example 230, N-[(1S)-5-[2-(2-aminopyridin-3-yl)-7-cyclopropyl-5-(pyrazol-1-yl)imidazo[4,5-b]pyridin-3-yl]-2,3-dihydro-1H-inden-1-yl]-3-formyl-4-hydroxybenzamide], the IC50 in test [1] lay in the range of 0.01 to 0.1 µM; in test [2], 0.01 to 0.1 µM; in test [3] it was 0.1 to 2 µM; in test [4], 0.1 to 2 µM.
As for `Nc1ncccc1-c1nc2c(N3CCC3)cc(-n3cccn3)nc2n1-c1ccc2c(c1)CC[C@@H]2NC(=O)c1ccc(O)c(C=O)c1` [Example 231, N-[(1S)-5-[2-(2-aminopyridin-3-yl)-7-(azetidin-1-yl)-5-(pyrazol-1-yl)imidazo[4,5-b]pyridin-3-yl]-2,3-dihydro-1H-inden-1-yl]-3-formyl-4-hydroxybenzamide], the IC50 in test [1] was 0.01 to 0.1 µM; in test [2], 0.01 to 0.1 µM; in test [3] it was 0.1 to 2 µM; in test [4], 0.1 to 2 µM.
Regarding `CS(=O)(=O)Nc1cc(-n2cccn2)nc2c1nc(-c1cccnc1N)n2-c1ccc2c(c1)CC[C@@H]2NC(=O)c1ccc(O)c(C=O)c1` [Example 232, N-[(1S)-5-[2-(2-aminopyridin-3-yl)-7-methanesulfonamido-5-(pyrazol-1-yl)imidazo[4,5-b]pyridin-3-yl]-2,3-dihydro-1H-inden-1-yl]-3-formyl-4-hydroxybenzamide], the IC50 in test [1], in test [2], in test [3] and in test [4] was at least 2 µM in each case.
For the compound `Nc1ncccc1-c1nc2c(-n3cn[nH]c3=O)cc(-n3cccn3)nc2n1-c1ccc2c(c1)CC[C@@H]2NC(=O)c1ccc(O)c(C=O)c1` [Example 233, N-[(1S)-5-[2-(2-aminopyridin-3-yl)-7-(3-oxo-2H-1,2,4-triazol-4-yl)-5-(pyrazol-1-yl)imidazo[4,5-b]pyridin-3-yl]-2,3-dihydro-1H-inden-1-yl]-3-formyl-4-hydroxybenzamide], the IC50 in test [1], in test [2], in test [3] and in test [4] was 0.1 to 2 µM each time.
Regarding `Cc1cc(-n2nccn2)nc2c1nc(-c1cccnc1N)n2-c1ccc2c(c1)CC[C@@H]2NC(=O)c1ccc(O)c(C=O)c1` [Example 234, N-[(1S)-5-[2-(2-aminopyridin-3-yl)-7-methyl-5-(1,2,3-triazol-2-yl)imidazo[4,5-b]pyridin-3-yl]-2,3-dihydro-1H-inden-1-yl]-3-formyl-4-hydroxybenzamide], the IC50 in test [1] was 0.01 to 0.1 µM; in test [2], 0.01 to 0.1 µM; in test [3], 0.1 to 2 µM; in test [4] it was 0.01 to 0.1 µM.
Turning to `[N-]=[N+]=Nc1cc(O)c(C=O)cc1C(=O)N[C@H]1CCc2cc(-n3c(-c4cccnc4N)nc4ccc(-n5cccn5)nc43)ccc21` [Example 235, N-[(1S)-5-[2-(2-aminopyridin-3-yl)-5-(pyrazol-1-yl)imidazo[4,5-b]pyridin-3-yl]-2,3-dihydro-1H-inden-1-yl]-2-azido-5-formyl-4-hydroxybenzamide], the IC50 was 0.1 to 2 µM in test [1], 0.01 to 0.1 µM in test [2], 0.1 to 2 µM in test [3] and 0.1 to 2 µM in test [4].
Take `COc1cc(F)c(C(=O)N[C@H]2CCc3cc(-n4c(-c5cccnc5N)nc5ccc(-n6cccn6)nc54)ccc32)cc1C=O` [Example 236, N-[(1S)-5-[2-(2-aminopyridin-3-yl)-5-(pyrazol-1-yl)imidazo[4,5-b]pyridin-3-yl]-2,3-dihydro-1H-inden-1-yl]-2-fluoro-5-formyl-4-methoxybenzamide]: the IC50 in test [1] is below 0.01 µM; in test [2], 0.01 to 0.1 µM; in test [3], 0.01 to 0.1 µM; in test [4], 0.1 to 2 µM.
Turning to `Nc1cc(O)c(C=O)cc1C(=O)N[C@H]1CCc2cc(-n3c(-c4cccnc4N)nc4ccc(-n5cccn5)nc43)ccc21` [Example 237, 2-amino-N-[(1S)-5-[2-(2-aminopyridin-3-yl)-5-(pyrazol-1-yl)imidazo[4,5-b]pyridin-3-yl]-2,3-dihydro-1H-inden-1-yl]-5-formyl-4-hydroxybenzamide], the IC50 fell in the range of 0.01 to 0.1 µM in test [1], 0.01 to 0.1 µM in test [2], 0.1 to 2 µM in test [3] and 0.1 to 2 µM in test [4].
For `Nc1ncccc1-c1nc2ccc(-n3cccn3)nc2n1-c1ccc2c(c1)CC[C@@H]2n1c(=O)[nH]c2cc(O)c(C=O)cc2c1=O` [Example 238, 3-[(1S)-5-[2-(2-aminopyridin-3-yl)-5-(pyrazol-1-yl)imidazo[4,5-b]pyridin-3-yl]-2,3-dihydro-1H-inden-1-yl]-7-hydroxy-2,4-dioxo-1H-quinazoline-6-carbaldehyde], the IC50 in test [1] was at least 2 µM; in test [2], 0.1 to 2 µM; in test [3], at least 2 µM; in test [4], at least 2 µM.
For the compound `Nc1ncccc1-c1nc2ccc(-n3cccn3)nc2n1-c1ccc2c(c1)CC[C@@H]2NCc1cc(C=O)c(O)cc1F` [Example 239, 5-({[(1S)-5-[2-(2-aminopyridin-3-yl)-5-(pyrazol-1-yl)imidazo[4,5-b]pyridin-3-yl]-2,3-dihydro-1H-inden-1-yl]amino}methyl)-4-fluoro-2-hydroxybenzaldehyde], the IC50 in test [1] was 0.01 to 0.1 µM; in test [2], 0.01 to 0.1 µM; in test [3] it was 0.1 to 2 µM; in test [4], at least 2 µM.
For `Nc1ncccc1-c1nc2ccc(-c3ccn(C4CC4)n3)nc2n1-c1ccc2c(c1)CC[C@@H]2NC(=O)c1cc(C=O)c(O)cc1F` [Example 240, N-[(1S)-5-[2-(2-aminopyridin-3-yl)-5-(1-cyclopropylpyrazol-3-yl)imidazo[4,5-b]pyridin-3-yl]-2,3-dihydro-1H-inden-1-yl]-2-fluoro-5-formyl-4-hydroxybenzamide], the IC50 in test [1] fell in the range of 0.01 to 0.1 µM; in test [2], 0.01 to 0.1 µM; in test [3], 0.1 to 2 µM; in test [4], 0.01 to 0.1 µM.
As for `Cn1ccc(-c2ccc3nc(-c4cccnc4N)n(-c4ccc5c(c4)CC[C@@H]5NC(=O)c4cc(C=O)c(O)cc4F)c3n2)n1` [Example 241, N-[(1S)-5-[2-(2-aminopyridin-3-yl)-5-(1-methylpyrazol-3-yl)imidazo[4,5-b]pyridin-3-yl]-2,3-dihydro-1H-inden-1-yl]-2-fluoro-5-formyl-4-hydroxybenzamide], the IC50 in test [1] is 0.01 to 0.1 µM; in test [2], below 0.01 µM; in test [3], 0.1 to 2 µM; in test [4], 0.01 to 0.1 µM.
Consider `Nc1ncccc1-c1nc2ccc(-n3cccn3)nc2n1-c1ccc2c(c1)CC[C@@H]2NC(=O)c1cc(C=O)c(O)c2scnc12` [Example 242, (S)—N-(5-(2-(2-aminopyridin-3-yl)-5-(1H-pyrazol-1-yl)-3H-imidazo[4,5-b]pyridin-3-yl)-2,3-dihydro-1H-inden-1-yl)-6-formyl-7-hydroxybenzo[d]thiazole-4-carboxamide], for which the IC50 in test [1] is 0.1 to 2 µM; in test [2], 0.01 to 0.1 µM; in test [3], at least 2 µM; in test [4], 0.1 to 2 µM.
On to `Nc1ncccc1-c1nc2c(C(F)F)cc(-n3cccn3)nc2n1-c1ccc2c(c1)CC[C@@H]2NC(=O)c1ccc(O)c(C=O)c1` [Example 245, N-[(1S)-5-[2-(2-aminopyridin-3-yl)-7-(difluoromethyl)-5-(pyrazol-1-yl)imidazo[4,5-b]pyridin-3-yl]-2,3-dihydro-1H-inden-1-yl]-3-formyl-4-hydroxybenzamide], for which the IC50 in test [1] is 0.01 to 0.1 µM; in test [2] it was below 0.01 µM; in test [3] it was 0.1 to 2 µM; in test [4], 0.01 to 0.1 µM.
